Source: ChEMBL document CHEMBL3137667, “[Drug-induced liver injury; fourteenth updated edition of the bibliographic database of liver injuries and related drugs]” (Gastroenterol Clin Biol, 2004)

Tests used:
[1] = Highest frequency of moderate liver toxicity observed during clinical trials, expressed as a percentage. [column '% BIOL' in source]; details: human
[2] = Highest frequency of acute liver toxicity observed during clinical trials, expressed as a percentage. [column '% AIGUE' in source]; details: human
[3] = Times to onset, minimal and maximal, observed in the indexed observations. [column 'DELAI' in source]; details: human
[4] = human, serum
[5] = human, serum; remark: listed apart in the source
[6] = human
[7] = human; remark: listed apart in the source
[8] = human; remark: listed apart in the source
[9] = human, serum, 4383 h
[10] = human; remark: listed apart in the source
[11] = human; remark: listed apart in the source
[12] = human; remark: listed apart in the source
[13] = human; remark: listed apart in the source
[14] = human; remark: listed apart in the source
[15] = human; remark: listed apart in the source
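For Hepatotoxicity (association with vascular disease) in this document: count of indexed literature references reporting vascular liver injury in humans, e.g. peliosis hepatitis, hepatic veno-occlusive disease or Budd-Chiari syndrome.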
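For Hepatotoxicity (benign tumour) in this document: value is a count of indexed literature references citing a benign tumour confirmed by histopathology.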
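For Hepatotoxicity (choleostasis) in this document: human cholestatic liver injury, shown by histopathology or by peak ALT or AST elevation over alkaline phosphatase ratio below 2, value counts indexed literature reports.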
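For Hepatotoxicity (chronic liver disease) in this document: chronic liver injury confirmed by histopathology or persistently raised serum aminotransferase activity beyond 6 months, value given as the count of indexed literature references.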
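For Hepatotoxicity (cirrhosis) in this document: value is a count of indexed literature references reporting cirrhosis confirmed by histopathology.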
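For Hepatotoxicity (cytolytic) in this document: human cytolytic liver injury, shown by histopathology or by a ratio above 5 of peak ALT or AST elevation to alkaline phosphatase elevation, value counts indexed references.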
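For Hepatotoxicity (granulomatous hepatitis) in this document: value is a count of indexed literature references reporting granulomatous liver disease confirmed by histopathology.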
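For Hepatotoxicity (malignant tumour) in this document: malignant tumour confirmed by histopathology, value gives the count of indexed literature references reporting it.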
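For Hepatotoxicity (severe hepatitis) in this document: human clinical data: severe hepatitis, meaning potentially life-threatening liver failure or clinically observed cases, the value counts how many indexed literature references report it.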
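For Hepatotoxicity (steatosis) in this document: steatosis confirmed by histopathology, value is the count of indexed references.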

Compound | Hepatotoxicity (moderate) [1] [%] | Hepatotoxicity (acute) [2] [%] | Hepatotoxicity (time to onset) [3] | Hepatotoxicity (moderate) [4] | Hepatotoxicity (acute) [5] | Hepatotoxicity (cytolytic) [6] | Hepatotoxicity (choleostasis) [7] | Hepatotoxicity (severe hepatitis) [8] | Hepatotoxicity (chronic liver disease) [9] | Hepatotoxicity (cirrhosis) [10] | Hepatotoxicity (granulomatous hepatitis) [11] | Hepatotoxicity (association with vascular disease) [12] | Hepatotoxicity (steatosis) [13] | Hepatotoxicity (malignant tumour) [14] | Hepatotoxicity (benign tumour) [15] | Hepatotoxicity (moderate) ([1]; Liver) [%] | Hepatotoxicity (acute) ([2]; Liver) [%] | Hepatotoxicity (severe hepatitis) ([8]; Liver)
COLESTIPOL | 0.8 | 0 | 6 months | 1 | 1 | 1 | 0 | 0 | 0 | 0 | 0 | 0 | 0 | 0 | 0 | – | – | –
C=CCC1(CC(C)C)C(=O)NC(=O)NC1=O [BUTALBITAL] | 0 | 0 | 2.5 months | 0 | 1 | 1 | 0 | 0 | 0 | 0 | 0 | 0 | 0 | 0 | 0 | – | – | –
NC(CO)C(=O)NNCc1ccc(O)c(O)c1O (stereo not given) [BENSERAZIDE] | 0 | 3.3 | < 3 months | 0 | 1 | 0 | 0 | 0 | 0 | 0 | 0 | 0 | 0 | 0 | 0 | – | – | –
O=C(NCN1CCOCC1)c1cnccn1 [MORINAMIDE] | 1.8 | 0.5 | 4 months | 2 | 2 | 2 | 0 | 1 | 0 | 0 | 0 | 0 | 0 | 0 | 0 | – | – | –
Cc1c(C(C)C)c(=O)n(-c2ccccc2)n1C [PROPYPHENAZONE] | 0 | 0 | 2 days - 2 years | 0 | 3 | 1 | 0 | 0 | 0 | 0 | 2 | 0 | 0 | 0 | 0 | – | – | –
CN(C)CCC(c1ccc(Cl)cc1)c1ccccn1.O=C(O)/C=C\C(=O)O (stereo not given) [CHLORPHENIRAMINE MALEATE] | – | – | 1 month | 0 | 2 | 1 | 1 | – | 0 | 0 | 0 | 0 | 0 | 0 | 0 | 0 | 0 | 0
COc1ccc(CN2CCNCC2)c(OC)c1OC [TRIMETAZIDINE] | 0 | 0 | 2 weeks | 0 | 1 | 0 | 1 | 0 | 0 | 0 | 0 | 0 | 0 | 0 | 0 | – | – | –
Nc1ccn([C@@H]2O[C@H](CO)[C@@H](O)C2(F)F)c(=O)n1 [GEMCITABINE] | 90.9 | 45.5 | 1 cure - 7 cures | 13 | 12 | 6 | 3 | 2 | 0 | 0 | 0 | 2 | 0 | 0 | 0 | – | – | –
CC(=O)[C@H]1CC[C@H]2[C@@H]3CC[C@H]4C[C@H](O)CC[C@]4(C)[C@H]3C(=O)C[C@]12C.C[C@]12CC[C@@H](O)C[C@@H]1CC[C@H]1[C@@H]3CC[C@H](C(=O)CO)[C@@]3(C)CC(=O)[C@@H]12 | 15 | 0 | 3 days - 5 days | 1 | 0 | 0 | 0 | 0 | 0 | 0 | 0 | 0 | 0 | 0 | 0 | – | – | –
NCC(CC(=O)O)c1ccc(Cl)cc1 (stereo not given) [BACLOFEN] | 0 | 0 | 3 weeks - 2 months | 1 | 3 | 1 | 1 | 0 | 0 | 0 | 0 | 0 | 0 | 0 | 0 | – | – | –
Cc1c(O)c(=O)ccn1C [DEFERIPRONE] | 59.5 | 1.2 | 3 months | 8 | 1 | 1 | 0 | 0 | 0 | 0 | 0 | 0 | 0 | 0 | 0 | – | – | –
